# “Also recorded” adds a separate entry of the source.
# Experiments:
# Type in all cases: cell-based
# [1] = system: chemotherapy-resistant colorectal cancer cells (HCT116); assay: XTT proliferation assay, colorectal cancer cells; conditions: 1, 5 and 10 μM DT, 1-3 days, FIG. 5
# Procedure: (§1) The prostate cancer cells were plated at a density of 10^3 or 3×10^3 per well, in a 96-well plate, in a medium containing 10% Fetal bovine serum (FBS) (Gibco®, commercially available from Life Technologies, USA). Once the prostate cancer cells were attached to the culture dish, the 10% FBS medium was replaced with a second 10% FBS medium and each of the prostate cancer cell line was treated with 1, 5, and 10 μM of DT respectively for 1-2 days. The absorbance was measured using XTT assay kit (commercially available from Roche, Switzerland) at 492 nm using an ELISA reader (Bio-Rad Laboratories, USA).
# An in vitro evaluation of the effect of DT on the chemotherapy-resistant colorectal cancer cells was performed. The chemotherapy-resistant colorectal cancer cells (HCT116) were obtained from Dr. K D Lee at Chang Gung Memorial Hospital, Chiayi, Taiwan. The colorectal cancer cells were cultured and plated according to the steps in Example 1 and treated with 0 (control), 1, 5 and 10 μM of DT, respectively for 1-3 days. The absorbance was measured using XTT assay kit at 492 nm using an ELISA reader.
# [2] = system: colorectal cancer cells (chemotherapy resistant HCT116); assay: Cell invasion assay (transwell, Matrigel), colorectal cancer cells; conditions: 5 or 10 μM DT, 3 days, vs control vehicle; FIG. 13 (a)
# Procedure: (§2) An in vitro evaluation of the effect of DT on lung cancer cells (A549 and chemotherapy resistant/metastatic H460), prostate cancer cells (metastatic DU145) and colorectal cancer cells (chemotherapy resistant HCT116) invasion and migration was performed, using cell invasion assay and cell migration assay.
# Cell Invasion Assay: cells of interest were treated with a control vehicle, 5 or 10 μM of DT and incubated for 3 days. 1×10^5 cells were placed into the upper chamber of transwell plates (8 μm) with membranes pre-coated with 20% Matrigel and the bottom chamber contained 600 μL media supplemented with 10% fetal bovine serum (FBS). The cells migrated to the bottom of the chamber were fixed, stained and counted.
# [3] = system: γ-H2AX, phosphorylated-ATM, phosphorylated-p53, PUMA, BAX, caspase-3, caspase-9 and PARP in LNCaP and DU145 prostate cancer cells; assay: Western blot of cell damage and cell death proteins, prostate cancer cells; conditions: various concentrations of DT, 6 to 24 hours, vs control vehicle; dose and time dependent; FIG. 9 (a)-(g)
# Procedure: An in vitro evaluation on the damage effect of DT on cancer cells was performed, using prostate cancer cells (metastatic LNCaP and metastatic DU145, hormone therapy resistant and metastatic PC3 and 22RV1) and lung cancer cells (A549 and chemotherapy-resistant/metastatic H460).
# Cancer cells were treated with a control vehicle, dihydrotestosterone (DHT), and various concentrations of DT between 6 to 24 hours. Cellular extracts of treated cancer cells were analyzed using Western Blot.
# [4] = system: ARK1 endometrial cancer cells; assay: XTT proliferation assay, ARK1; conditions: 5, 10 and 20 μM DT, 1-2 days, FIG. 4
# Procedure: as §1
# An in vitro evaluation of the effect of DT on endometrial cancer cells was performed. The endometrial cancer cell lines, ARK1 and ARK2, were provided by Dr. T H Wang at Chang Gung Meorial Hospital, Linkou, Taiwan)
# The endometrial cancer cells were cultured and plated according to the steps in Example 1 and each of the endometrial cancer cell line was treated with 0 (control), 5, 10 and 20 μM of DT, respectively for 1-2 days. The absorbance was measured using XTT assay kit at 492 nm using an ELISA reader.
# [5] = system: lung cancer cells (A549 and chemotherapy resistant/metastatic H460); assay: Cell migration (wound-healing) assay, lung cancer cells; conditions: DT vs control vehicle, 24 h, dose dependent; FIG. 11
# Procedure: as §2
# Cell Migration Assay: In vitro wound-healing assay was used to assess cell motility in two dimensions. Cancer cells were plated overnight to achieve a subconfluent cell layer in 24-well plates. A scratch was made on the cell layer with a micropipette tip, and cultures were washed twice with serum-free medium to remove floating cells. Cancer cells were incubated in a culture medium containing DT or the control vehicle. Wound healing was visualized by comparing photographs taken at the time of adding the DT/control vehicle and 24 h later. Three experiments were done in quadruplicates.
# [6] = system: tamoxifen-resistant MCF-7 breast cancer cells; assay: XTT proliferation assay, tamoxifen-resistant MCF-7; conditions: 1-3 days, Panel (c) of FIG. 3
# Procedure: as §1
# An in vitro evaluation of the effect of DT on the breast cancer cells was performed. The breast cancer cell lines, MDA-MB-231, MCF-7 and tamoxifen-resistant MCF-7 breast cancer cells were obtained from Bioresource Collection and Research Center, Taiwan. The breast cancer cells were cultured in Eagle's Minimum Essential Medium containing 10% charcoal-stripped fetal bovine serum and plated according to the steps in Example 1 and each of the breast cancer cell line was treated with 0 (control), 5, 10 and 20 μM of DT, respectively for 1-3 days. The absorbance was measured using XTT assay kit at 492 nm using an ELISA reader.
structure (smiles),measurement,setting,value
"Cc1cccc2c3c(ccc12)C(=O)C1=C(OCC1C)C3=O (centres unmarked) [DT, dihydroisotanshinone I]",inhibition of chemotherapy-resistant colorectal cancer cells,[1],effective in inhibiting chemotherapy-resistant colorectal cancer cells in a dose dependent manner
same,colorectal cancer cell motility (invasion assay),[2],reduced the motility of chemotherapy resistant colorectal cancer cells; also recorded: reduced the motility of colon cancer cells
same,"DNA damage response proteins (γ-H2AX and phosphorylated-ATM), prostate cancer cells",[3],increased
same,"cell cycle regulatory protein (phosphorylated-p53), prostate cancer cells",[3],increased
same,"cell program death proteins (PUMA, BAX, caspase-3, caspase-9 and PARP), prostate cancer cells",[3],increased
same,inhibition of ARK1 endometrial cancer cells,[4],effective in inhibiting ARK1 and ARK2 endometrial cancer cells
same,lung cancer cell migration into the wounded area,[5],reduced metastatic lung cancer cell migration; also recorded: reduced lung cancer cell migration into the wounded area
same,dose of DT required for inhibiting tamoxifen-resistant MCF-7 cells,[6],> 1 µM
